The record followed here is US11970471B1, “3-(4-chlorophenyl)-5-{[5-methyl-2-(propan-2-yl)phenoxy]methyl }- 1,2,4-oxadiazole as an antitumor and antimicrobial compound” (KING FAISAL UNIVERSITY, priority 2023, dated 2024).

The subject of series [1] is Human prostate cancer cells (PC3). The experiment in a line: Cytotoxicity by SRB assay, PC3 cells. Conditions: 0.01 μM to 100 μM for 72 h. The class given is cell-based. The protocol: (§1) Human prostate cancer cells (PC3) and human osteosarcoma cells (MG-63) were obtained from Nawah Scientific Inc. (Mokatam, Cairo, Egypt) and cultured in DMEM (Dulbecco's modified eagle's medium), Gibco, USA, supplemented with fetal bovine serum (FBS) at a concentration of 10% and 100 U/mL of penicillin and streptomycin (PS). The cells were incubated at 37° C. in a humidified environment that contained 5% CO2. Cells were seeded in 96-well plates as aliquots of 100 μL cell suspension and incubated in a complete media for 24 h. afterward, cells were treated with 3-(4-chlorophenyl)-5-{[5-methyl-2-(propan-2-yl)phenoxy]methyl}-1,2,4-oxadiazole at diverse concentrations ranging from 0.01 μM to 100 μM for 72 h. Then, cells were fixed at 4° C. for one hour with 150 μL of 10% trichloroacetic acid (TCA). After washing the cells five times with distilled water, 70 μL of sulforhodamine (SRB) solution (0.4% w/v) was added and incubated for 10 min at room temperature in a dark place. […] Then, 150 μL of Tris pH 10.5 (10 mM) was added, and the absorbance was measured at 540 nm using a BMG LABTECH®-FLUOstar Omega microplate reader (Ortenberg, Germany). Half maximal inhibitory concentrations (IC50) values were calculated for each experiment using GraphPad Prism 6 software. […] The inhibition was calculated using the following equation: Inhibition %=100−Average Viability

Series [2] deals with human osteosarcoma cells (MG-63). The experiment in a line: Cytotoxicity by SRB assay, MG-63 cells. The class given is cell-based. Conditions: 0.01 μM to 100 μM for 72 h. The protocol:
as §1

`Cc1ccc(C(C)C)c(OCc2nc(-c3ccc(Cl)cc3)no2)c1` [3-(4-chlorophenyl)-5-{[5-methyl-2-(propan-2-yl)phenoxy]methyl}-1,2,4-oxadiazole] displayed a melting point of 166 to 167 °C. The antiproliferative activity entry in series [1] is “excellent antiproliferative activities”. Further, the antiproliferative activity result in series [2] is reported as “excellent antiproliferative activities”.
